Active and inactive are the calls of the source. No cut-off for these calls is given here.
Experiments:
L929 = assay: (§1) Antiproliferative activity against mouse L929 cells assessed as inhibition of cell growth measured after 48 hrs by MTT assay; format: toxicity, cell-based; settings: l929
[1] = Selectivity index, ratio of IC50 for mouse L929 cells to IC50 for human A549 cells; format: toxicity; settings: for selectivity ratio: L929 cells and A549 cells, read-out: Ratio IC50
A549 [2] = system: A549
Description: (§2) Antiproliferative activity against human A549 cells assessed as inhibition of cell growth measured after 48 hrs by MTT assay

[3] = as §1; format: toxicity, cell-based; settings: mouse, L929 cells
A549 [4] = assay: cells; settings: Homo sapiens, A549, 48 h
Description: as §2

TE-1 = assay: cells; settings: Homo sapiens, TE-1, 48 h
Description: Antiproliferative activity against human TE-1 cells assessed as inhibition of cell growth measured after 48 hrs by MTT assay

5637 = assay: cells; settings: Homo sapiens, 5637, 48 h
Description: Antiproliferative activity against human 5637 cells assessed as inhibition of cell growth measured after 48 hrs by MTT assay

A549 [5] = assay: Inhibition of colony formation in human A549 cells assessed as suppression of colony formation at 1 nM replaced with fresh medium for every 72 hrs and measured for 15 days by crystal violet staining based assay; format: functional, cell-based; settings: time 15.0 day
A549 [6] = assay: Induction of autophagy in human A549 cells assessed as increase in LC3II amount by Western blot analysis; format: functional, cell-based; settings: dose 0.04-0.1 µM
A549 [7] = assay: Induction of oxidative stress in human A549 cells assessed as upregulation of ROS level by DCFH-DA staining based analysis; format: functional, cell-based; settings: dose 0.04-0.1 µM
A549 [8] = assay: Induction of DNA damage in human A549 cells assessed as gammaH2AX accumulation at 0.04 uM by Western blot analysis; format: functional, cell-based
A549 [9] = assay: Induction of DNA damage in human A549 cells measured after 36 hrs by comet assay; format: functional, cell-based; settings: dose 0.04-0.1 µM
A549 [10] = assay: Induction of DNA damage in human A549 cells assessed as increase in DNA percentage in tail at low concentration measured after 36 hrs by comet assay; format: functional, cell-based
A549 [11] = assay: Induction of apoptosis in human A549 cells assessed as increase in caspase-3 cleavage at low concentration measured after 48 hrs by Western blot analysis; format: functional, cell-based
A549 [12] = assay: Induction of apoptosis in human A549 cells assessed as inhibition of Bcl-2 level measured after 48 hrs by Western blot analysis; format: functional, cell-based; settings: dose 0.01-0.1 µM
A549 [13] = assay: Induction of apoptosis in human A549 cells assessed as upregulation of bax level measured after 48 hrs by Western blot analysis; format: functional, cell-based; settings: dose 0.01-0.1 µM
A549 [14] = assay: Induction of autophagy in human A549 cells assessed as formation of GFP-LC3 punctate by confocal fluorescence microscopy analysis; format: functional, cell-based; settings: dose 0.01-0.1 µM
A549 [15] = assay: Inhibition of survivin mRNA expression in human A549 cells by Q-PCR analysis; format: functional, cell-based; settings: dose 0.01-0.1 µM
A549 [16] = assay: Inhibition of survivin protein expression in human A549 cells by Western blot analysis; format: functional, cell-based; settings: dose 0.004 µM
A549 [17] = assay: Induction of apoptosis in survivin silenced human A549 cells assessed as decrease in apoptotic rate at 0.04 uM measured after 48 hrs by AnnexinV-FITC/PI staining based flow cytometry; format: functional, cell-based
[18] = target: Baculoviral IAP repeat-containing protein 5 (Homo sapiens) (UniProt O15392); assay: Inhibition of Survivin (unknown origin) expressed in HEK293T cells in presence of ILF3/NF110 by Dual luciferase reporter assay; format: cell-based; settings: dose <= 2000.0 nM
A549 [19] = assay: Antitumor activity against human A549 cells xenografted in BALB/c nude mouse assessed as inhibition of tumor growth at 2 mg/kg, sc administered every 2 days for 14 days; format: functional, organism-based; settings: time 14.0 day
A549 [20] = assay: Antitumor activity against human A549 cells xenografted in BALB/c nude mouse assessed as appearance of tumor necrosis at 4 mg/kg measured after 14 days by H and E staining based analysis; format: functional, organism-based; settings: time 14.0 day
A549 [21] = assay: Antitumor activity against human A549 cells xenografted in BALB/c nude mouse assessed as increase in apoptosis at 2 mg/kg measured after 14 days by tunel staining based analysis; format: functional, organism-based; settings: time 14.0 day
A549 [22] = assay: Antitumor activity against human A549 cells xenografted in BALB/c nude mouse assessed as increase in apoptosis at 2 to 4 mg/kg measured after 14 days by tunel staining based analysis; format: functional, organism-based; settings: dose 2-4 mg/kg, time 14.0 day
A549 [23] = assay: Antitumor activity against human A549 cells xenografted in BALB/c nude mouse assessed as appearance of various size of tumor necrosis at 2 mg/kg measured after 14 days by H and E staining based analysis; format: functional, organism-based; settings: time 14.0 day
A549 [24] = assay: Antitumor activity against human A549 cells xenografted in BALB/c nude mouse assessed as decrease in tumor cell proliferation at 2 to 4 mg/kg measured after 14 days by Ki67 staining based analysis; format: functional, organism-based; settings: dose 2-4 mg/kg, time 14.0 day
A549 [25] = assay: Antitumor activity against human A549 cells xenografted in BALB/c nude mouse assessed as decrease in tumor cell proliferation at 2 to 4 mg/kg measured after 14 days by PCNA staining based analysis; format: functional, organism-based; settings: dose 2-4 mg/kg, time 14.0 day
ASPC1 = assay: Antiproliferative activity against human ASPC1 cells assessed as inhibition of cell growth measured after 48 hrs by MTT assay; format: functional, cell-based; settings: Homo sapiens, ASPC1, 48 h
BXPC-3 = assay: Antiproliferative activity against human BXPC-3 cells assessed as inhibition of cell growth measured after 48 hrs by MTT assay; format: functional, cell-based; settings: Homo sapiens, BXPC-3, 48 h
PANC-1 = assay: Antiproliferative activity against human PANC-1 cells assessed as inhibition of cell growth measured after 48 hrs by MTT assay; format: functional, cell-based; settings: Homo sapiens, PANC-1, 48 h
MCF7 = assay: Antiproliferative activity against human MCF7 cells assessed as inhibition of cell growth measured after 48 hrs by MTT assay; format: functional, cell-based; settings: MCF7, 48 h
NCI-H460 = assay: Antiproliferative activity against human NCI-H460 cells assessed as inhibition of cell growth measured after 48 hrs by MTT assay; format: functional, cell-based; settings: Homo sapiens, NCI-H460, 48 h
HepG2 = assay: Antiproliferative activity against human HepG2 cells assessed as inhibition of cell growth measured after 48 hrs by MTT assay; format: functional, cell-based; settings: Homo sapiens, HepG2, 48 h
NCI-H1299 = assay: Antiproliferative activity against human NCI-H1299 cells assessed as inhibition of cell growth measured after 48 hrs by MTT assay; format: functional, cell-based; settings: Homo sapiens, NCI-H1299, 48 h
143B = assay: Antiproliferative activity against human 143B cells assessed as inhibition of cell growth measured after 48 hrs by MTT assay; format: functional, cell-based; settings: Homo sapiens, 143B, 48 h
HeLa = assay: Antiproliferative activity against human HeLa cells assessed as inhibition of cell growth measured after 48 hrs by MTT assay; format: functional, cell-based; settings: Homo sapiens, HeLa, 48 h
A549 [26] = assay: Antitumor activity against human A549 cells xenografted in BALB/c nude mouse assessed as decrease in tumor cell proliferation at 2 mg/kg measured after 14 days by Ki67 staining based analysis; format: functional, organism-based; settings: time 14.0 day
A549 [27] = assay: Antitumor activity against human A549 cells xenografted in BALB/c nude mouse assessed as decrease in tumor cell proliferation at 2 mg/kg measured after 14 days by PCNA staining based analysis; format: functional, organism-based; settings: time 14.0 day
A549 [28] = assay: Induction of apoptosis in human A549 cells assessed as viable cells at 0.04 uM measured after 48 hrs by annexin V and PI staining based flow cytometry analysis (reference value: 93.3%); format: functional; settings: Homo sapiens, A549, 48 h, read-out: Activity
A549 [29] = assay: Induction of apoptosis in human A549 cells assessed as viable cells at 0.1 uM measured after 48 hrs by annexin V and PI staining based flow cytometry analysis (reference value: 93.3%); format: functional; settings: Homo sapiens, A549, 48 h, read-out: Activity
A549 [30] = assay: Induction of apoptosis in human A549 cells assessed as viable cells at 0.25 uM measured after 48 hrs by annexin V and PI staining based flow cytometry analysis (reference value: 93.3%); format: functional; settings: Homo sapiens, A549, 48 h, read-out: Activity
A549 [31] = assay: Induction of apoptosis in human A549 cells assessed as early apoptotic cells at 0.04 uM measured after 48 hrs by annexin V and PI staining based flow cytometry analysis (reference value: 0.71%); format: functional
A549 [32] = assay: Induction of apoptosis in human A549 cells assessed as early apoptotic cells at 0.1 uM measured after 48 hrs by annexin V and PI staining based flow cytometry analysis (reference value: 0.71%); format: functional
A549 [33] = assay: Induction of apoptosis in human A549 cells assessed as early apoptotic cells at 0.25 uM measured after 48 hrs by annexin V and PI staining based flow cytometry analysis (reference value: 0.71%); format: functional
A549 [34] = assay: Induction of apoptosis in human A549 cells assessed as late apoptotic cells at 0.04 uM measured after 48 hrs by annexin V and PI staining based flow cytometry analysis (reference value: 4.70%); format: functional
A549 [35] = assay: Induction of apoptosis in human A549 cells assessed as late apoptotic cells at 0.1 uM measured after 48 hrs by annexin V and PI staining based flow cytometry analysis (reference value: 4.70%); format: functional
A549 [36] = assay: Induction of apoptosis in human A549 cells assessed as late apoptotic cells at 0.25 uM measured after 48 hrs by annexin V and PI staining based flow cytometry analysis (reference value: 4.70%); format: functional
A549 [37] = assay: Induction of apoptosis in human A549 cells assessed as necrotic cells at 0.04 uM measured after 48 hrs by annexin V and PI staining based flow cytometry analysis (reference value: 1.47%); format: functional
A549 [38] = assay: Induction of apoptosis in human A549 cells assessed as necrotic cells at 0.1 uM measured after 48 hrs by annexin V and PI staining based flow cytometry analysis (reference value: 1.47%); format: functional
A549 [39] = assay: Induction of apoptosis in human A549 cells assessed as necrotic cells at 0.25 uM measured after 48 hrs by annexin V and PI staining based flow cytometry analysis (reference value: 1.47%); format: functional

Sequence of Baculoviral IAP repeat-containing protein 5 (Homo sapiens) (O15392 whole entry): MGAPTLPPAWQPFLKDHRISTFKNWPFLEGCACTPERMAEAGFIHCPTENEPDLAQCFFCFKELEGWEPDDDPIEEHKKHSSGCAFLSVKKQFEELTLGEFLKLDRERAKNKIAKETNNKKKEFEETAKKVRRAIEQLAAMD

Cn1c[n+](C)c2c1C(=O)c1ccccc1C2=O.O=S(=O)([O-])C(F)(F)F
IC50 (L929): 2000 nM
Ratio IC50 [1]: 28.6
IC50 (A549 [2]): 70 nM

Cn1c[n+](C)c2c1C(=O)c1ccccc1C2=O.F[P-](F)(F)(F)(F)F
IC50 (L929): 1800 nM
Ratio IC50 [1]: 10.6
IC50 (A549 [2]): 170 nM

Cc1n(C)c2c([n+]1C)C(=O)c1cc3ccccc3cc1C2=O
IC50 at 48 h [3]: 15100 nM
selectivity ratio [1]: 302
IC50 (A549 [4]): 50 nM
IC50 (TE-1): 50 nM
IC50 5637: 420 nM

CS(=O)(=O)[O-].Cn1c[n+](C)c2c1C(=O)c1ccccc1C2=O
IC50 (L929): 700 nM
Ratio IC50 [1]: 1.8
IC50 (A549 [2]): 400 nM

Cn1c[n+](C)c2c1C(=O)c1cc3ccccc3cc1C2=O
inhibition (A549 [5]): Active
Activity (A549 [6]): Dose-Dependent Effect
Activity (A549 [7]): Active
Activity (A549 [8]): Active
Activity (A549 [9]): Dose-Dependent Effect
Activity (A549 [10]): Active
Activity (A549 [11]): Active
Activity (A549 [12]): Dose-Dependent Effect
Activity (A549 [13]): Dose-Dependent Effect
Activity (A549 [14]): Dose-Dependent Effect
inhibition (A549 [15]): Active
inhibition (A549 [16]): Active
Activity (A549 [17]): Active
inhibition [18]: Dose-Dependent Effect
Activity (A549 [19]): Active
Activity (A549 [20]): Active
Activity (A549 [21]): Active
Activity (A549 [22]): Active
Activity (A549 [23]): Active
Activity (A549 [24]): Active
Activity (A549 [25]): Active

COCC[n+]1c2c(n(Cc3cnccn3)c1C)C(=O)c1ccccc1C2=O.[Br-] [SEPANTRONIUM BROMIDE]
inhibition (A549 [5]): Active
IC50 (ASPC1): 510 nM
IC50 (BXPC-3): 90 nM
IC50 (PANC-1): 10 nM
IC50 (MCF7): 10 nM
IC50 (NCI-H460): 100 nM
IC50 (HepG2): 3720 nM
IC50 (NCI-H1299): 120 nM
IC50 (143B): 320 nM
IC50 (HeLa): 1800 nM
Activity (A549 [19]): inactive
Activity (A549 [21]): Active
Activity (A549 [23]): Active
Activity (A549 [26]): Active
Activity (A549 [27]): Active
viability at 0.04 µM (A549 [28]): 22.2%
viability at 0.1 µM (A549 [29]): 11.3%
viability at 0.25 µM (A549 [30]): 4.72%
Activity (A549 [31]): 1.65%
Activity (A549 [32]): 1.54%
Activity (A549 [33]): 0.57%
Activity (A549 [34]): 51.1%
Activity (A549 [35]): 76.4%
Activity (A549 [36]): 86.9%
Activity (A549 [37]): 24.2%
Activity (A549 [38]): 11.7%
Activity (A549 [39]): 7.79%
IC50 (A549 [4]): 10 nM
IC50 (TE-1): 8 nM
IC50 5637: 110 nM

CCCn1c[n+](CCC)c2c1C(=O)c1ccccc1C2=O
IC50 at 48 h [3]: 9800 nM
selectivity ratio [1]: 15.1
IC50 (A549 [4]): 650 nM

From ChEMBL document CHEMBL5375989, “Pioneering 4,11-Dioxo-4,11-dihydro-1H-anthra[2,3-d]imidazol-3-ium Compounds as Promising Survivin Inhibitors by Targeting ILF3/NF110 for Cancer Therapy” (J Med Chem, 2023)
